Assay results: patent US20220280594A1, “APPLICATION OF POLYPEPTIDE OR DERIVATIVE THEREOF” (CHENGDU HUITAI BIOMEDICINE CO., LTD., priority 2019, published 2022)
Ends that are not written are not given here. PEG = not defined here

Tests used:
Type in all cases: cell-based
[1] = tested on: human pancreatic cancer cells (PANC-1); experiment: scratch assay, migration of PANC-1 cells; details: PANC-1, 10 μM, 48 hours; control group 66.65 ± 3.37
Procedure, shortened: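 PANC-1 monolayers were scratched, then cultured for 48 h with 10 μM test compound in 2% FBS medium, in three parallel wells per group against a PBS control. Migration rate (%) was calculated as (original minus current scratch width) / original width × 100, from imaged wells.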

[2] = tested on: human liver adenocarcinoma cells (SK-HEP-1); experiment: transwell migration assay, SK-HEP-1 cells; details: SK-HEP-1 transwell migration, 10 μM, 24 hours; control group 1 782 ± 108, control group 2 768 ± 86
Procedure, shortened: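 SK-HEP-1 cells in serum-free medium seeded in upper transwell chamber (2-3×10^5 cells/mL) over complete medium; after 4-5 h at 37 °C, 5% CO2, peptide added at 10 μM final in upper chamber. After 24 h, migrated cells fixed in methanol, crystal-violet stained, imaged and counted.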

[3] = tested on: human liver adenocarcinoma cells (SK-HEP-1); experiment: transwell invasion assay, SK-HEP-1 cells; details: SK-HEP-1 transwell invasion, 10 μM, 24 hours; control group 767 ± 91
Procedure, shortened: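 Serum-free SK-HEP-1 cells were seeded in matrigel-coated upper chambers over complete medium. After 4-5 h, peptide was added to the upper chamber at 10 μM final. Following 24 h at 37° C., invaded cells were fixed, crystal violet-stained, imaged and counted.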

[4] = tested on: human breast cancer cells (MDA-MB-231); experiment: scratch assay, migration of MDA-MB-231 cells; details: MDA-MB-231, 10 μM, 48 hours; control group 36.19 ± 5.15
Procedure, shortened: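 MDA-MB-231 monolayers (1-2×10^5 cells/well) were scratched, then kept 48 h in medium with 2% FBS containing polypeptide at 10 μM, with a PBS control, in triplicate wells. Migration rate (%) was taken from scratch width: (original − current)/original ×100.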

[5] = tested on: human melanoma cells (A375); experiment: scratch assay, migration of A375 cells; details: A375, 10 μM, 48 hours; control group 44.03 ± 6.21
Procedure, shortened: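 Monolayers scratched, washed with PBS and cultured 48 hours in 2% FBS medium with polypeptides N1-N54 at 10 μM or PBS control, three wells per group. Migration rate (%) = (original − current scratch width)/original width×100, from imaged scratch widths.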

[6] = tested on: human pharyngeal squamous-cell carcinoma cells (Fadu); experiment: scratch assay, migration of Fadu cells; details: 10 μM, 48 hours, control group 28.76 ± 4.08
Procedure, shortened: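 Confluent Fadu monolayers scratched, then cultured 48 h with 10 μM polypeptide in medium with 2% FBS; PBS control, triplicate wells. Migration rate (%) = (original − current scratch width)/original width × 100, from ≥3 images per well.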

[7] = tested on: human colon cancer cells (HCT-116); experiment: scratch assay, migration of HCT-116 cells; details: HCT-116, 10 μM, 48 hours; control group 47.78 ± 6.07
Procedure, shortened: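 Confluent HCT-116 monolayers were scratched, washed and cultured 48 h in 2% FBS medium with peptide at 10 μM versus PBS control, triplicate wells. Migration rate (%) = (original minus current scratch width)/original width × 100, from at least 3 images per well.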

[8] = tested on: human prostate cancer cells (22RV1); experiment: scratch assay, migration of 22RV1 cells; details: 22RV1, 10 μM, 48 hours; control group 25.41 ± 5.01
Procedure, shortened: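 22RV1 monolayers (seeded 1-2×10^5 cells/well) were scratched, washed, then given 2% FBS medium with 10 μM polypeptide or PBS, triplicate wells, for 48 h. Migration rate (%) = (original − current scratch width)/original width ×100, from ≥3 images per well.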

Substance | Migration rate (%) (mean ± SD, P) [1] | Number of cells (mean ± SD, P), migrated cells [2] | Number of cells (mean ± SD, P), invaded cells [3] | Migration rate (%) (mean ± SD, P) [4] | Migration rate (%) (mean ± SD, P) [5] | Migration rate (%) (mean ± SD, P) [6] | Migration rate (%) (mean ± SD, P) [7] | Migration rate (%) (mean ± SD, P) [8]
N28: SEQ ID NO: 1 with deletion of positions 1-2 and 18 and PEG modification at the amino terminal ({PEG}-VRFLAKENVTQDAED; reading uncertain) | 32.25 ± 5.40,** % | 51 ± 25,**** | 214 ± 31,**** | 9.36 ± 1.8,** % | 10.80 ± 2.66,*** % | 15.23 ± 3.59,* % | 9.19 ± 3.22,*** % | 15.63 ± 2.59,* %
N29: SEQ ID NO: 1 with deletion of positions 1-5 and 15-18 and PEG modification at the amino terminal ({PEG}-LAKENVTQD; reading uncertain) | 40.62 ± 4.97,* % | 254 ± 14,**** | 322 ± 56,*** | 18 ± 4.47,* % | 14.01 ± 4.22,*** % | 12.27 ± 2.23,** % | 8.24 ± 2.32,*** % | 9.99 ± 3.89,* %
N30: SEQ ID NO: 1 with deletion of positions 1-5 and 15-18 and PEG modification at the carboxyl terminal (LAKENVTQD-{PEG}; reading uncertain) | 16.60 ± 5.85,*** % | 156 ± 22,**** | 85 ± 20,**** | 9.02 ± 2.02,*** % | 6.96 ± 2.18,*** % | 13.85 ± 3.59,** % | 12.41 ± 2.99,*** % | 10.82 ± 2.55,* %
N31: SEQ ID NO: 1 with deletion of positions 3, 4, 11 and 15-18 and PEG modification at the carboxyl terminal (YRFLAKENTQD-{PEG}; reading uncertain) | 13.64 ± 7.59,*** % | 90 ± 6,**** | 269 ± 17,**** | 18.7 ± 3.05,* % | 12.5 ± 2.29,*** % | 12.13 ± 5.10,** % | 7.39 ± 2.06,*** % | 12.40 ± 2.24,* %
N32: SEQ ID NO: 1 with deletion of positions 1-3, addition of one amino acid and PEG modification at the carboxyl terminal (RFLAKENVTQDAEDNC-{PEG}; reading uncertain) | 15.49 ± 8.35,*** % | 201 ± 13,**** | 252 ± 7,**** | 13.33 ± 3.83,** % | 18.22 ± 3.95,** % | 14.63 ± 4.96,* % | 8.17 ± 1.07,*** % | 8.68 ± 1.66,** %
N33: SEQ ID NO: 1 with deletion of positions 1-5, addition of one amino acid and PEG modification at the carboxyl terminal (LAKENVTQDAEDNC-{PEG}; reading uncertain) | 39.27 ± 3.14,* % | 354 ± 31,*** | 197 ± 32,**** | 22.68 ± 3.02,* % | 9.98 ± 3.11,*** % | 10.28 ± 2.06,** % | 12.85 ± 3.12,*** % | 10.03 ± 2.15,* %
N34: SEQ ID NO: 1 with A15R, addition of one amino acid at the carboxyl terminal, PEG modification at the amino terminal ({PEG}-YRVRFLAKENVTQDREDNC; reading uncertain) | 28.58 ± 3.87,*** % | 260 ± 32,**** | 187 ± 38,**** | 17.34 ± 4.82,* % | 15.11 ± 2.01,*** % | 7.38 ± 2.85,*** % | 17.96 ± 3.84,** % | 5.00 ± 2.29,** %
N35: SEQ ID NO: 1 with A15R, addition of one amino acid and PEG modification at the carboxyl terminal (YRVRFLAKENVTQDREDNC-{PEG}; reading uncertain) | 36.83 ± 5.92,** % | 315 ± 36,*** | 338 ± 43,*** | 18.12 ± 5.23,* % | 19.51 ± 2.28,** % | 8.71 ± 1.79,*** % | 9.08 ± 2.64,*** % | 7.13 ± 2.23,** %
N37: SEQ ID NO: 1 with addition of two amino acids to the carboxyl terminal and PEG modification at the amino terminal ({PEG}-YRVRFLAKENVTQDAEDNCT; reading uncertain) | 18.23 ± 6.77,*** % | 84 ± 7,**** | 233 ± 13,**** | 20.43 ± 3.23,* % | 14.48 ± 2.51,*** % | 15.89 ± 3.88,* % | 4.99 ± 1.68,*** % | 4.86 ± 1.91,** %
N38: SEQ ID NO: 1 with one amino acid added at each terminal and PEG modification at the carboxyl terminal (FYRVRFLAKENVTQDAEDNC-{PEG}; reading uncertain) | 24.87 ± 5.81,*** % | 380 ± 32,*** | 249 ± 42,**** | 18.99 ± 3.25,* % | 15.57 ± 3.65,*** % | 18.18 ± 3.61,* % | 5.97 ± 2.44,*** % | 7.73 ± 1.58,** %
N39: SEQ ID NO: 1 with addition of two amino acids and PEG modification at the carboxyl terminal (YRVRFLAKENVTQDAEDNTC-{PEG}; reading uncertain) | 16.29 ± 8.00,*** % | 261 ± 25,**** | 88 ± 25,**** | 19.08 ± 3.17,* % | 9.21 ± 3.20,*** % | 18.48 ± 5.74,* % | 4.29 ± 2.88,*** % | 4.21 ± 2.81,** %
